In patent US11679168B2, “Caspase-3-triggered molecular self-assembling PET probes and uses thereof” (The Board of Trustees of the Leland Stanford Junior …, priority 2018, dated 2023):
Where “and” joins values, the source holds several entries; their conditions need not be identical. Identical values can stand only once. Like-named read-outs stand apart in the source and are kept apart here. Square brackets hold non-standard residues; d marks the D form. Peptide text beside a SMILES is read from it. * marks the point of attachment. NH(CH2)3O(2-CNpyrimidin5yl) = N#Cc1ncc(OCCCN*)cn1; 4Amb = NCc1ccc(C(=O)O)cc1; Pra = C#CC[CH](N)C(=O)O; SEt = CCS*

Legend:
[1] = DLS of nanoaggregates of cyclized products; type: physicochemical; settings: 10 μM, after raising pH from 4 to 7.4
Experimental: DLS Measurements: DLS measurements samples of I-VI were prepared by diluting fresh stock solutions of I-VI (20 mM in DMSO) to 10 μM solutions with HCl aqueous solution to adjust pH to 4. DLS measurements samples of cycl-I-VI were prepared by adding 0.5 μL of freshly prepared stock solutions of 1-VI (20 mM in DMSO), 6 μL saturated sodium bicarbonate solution into 993.5 μL H2O to adjust pH to 7.4.

[2] = cited from earlier work; for 2nd order rate constant k: aromatic nitrile with L-cysteine, reported in Reference 13
[3] = Condensation kinetics of aminothiols with CBT (HPLC assay); type: physicochemical; settings: for 2nd order rate constant k: aminothiol with CBT, PBS buffer, room temperature, HPLC assay; for second-order reaction rate: substituted cysteine analogues with CBT, FIG. 50B
Experimental: (§1) General Methods for Measuring Kinetics of Condensation Reactions Between Aromatic Nitriles and Aminothiols: The 2nd order rate constants for condensation reactions between aromatic nitriles and aminothiols were measured by using HPLC assays. To solutions of aromatic nitriles (100 μM) in phosphate buffered saline (PBS) (1×, pH=7.4) were added aminothiol (1.0 equiv.), TCEP (2.0 equiv.) and NaHCO3 (3 equiv.). The reaction solutions were kept at room temperature (23° C.) and monitored by HPLC at different time points. The conversion rates were calculated using the peak integrals of aromatic nitriles and the condensation products at 254 nm. Based on 2nd order reaction law, 1/[aromatic nitrile] was plotted against time and the slope of the linear regression result gives the 2nd order rate constant.

[4] = test system: MetAP2 activity in DU145 cells; test: Imaging MetAP2 activity in DU145 cells (post click Cy5 labeling); type: cell-based, human; settings: for Cy5 post-labeled fluorescence in cells: DU145, 20 μM, 24 h
Experimental: Imaging MetAP2 activity in cancer cells: […] Post click fluorescent labeling was performed as illustrated in FIG. 45A to locate the nanoaggregation in cells and avoid the possible interference with probe uptake by pre-conjugating a large Cy5 fluorophore.

[5] = test system: MetAP2 activity in PC3 cells; test: Imaging MetAP2 activity in PC3 cells (post click Cy5 labeling); type: cell-based, human; settings: for Cy5 post-labeled fluorescence in cells: 24 h
Experimental: FIG. 45B illustrates fluorescence microscopy imaging of cy5 post-labeled M-SNAT (20 μM) with or without TNP470 and M-SNAT-ctrl (20 μM) in PC3 cells. Permealized cells were also stained with DAPI (blue).
Imaging MetAP2 activity in cancer cells: Cell uptake and MetAP2 specific activation of M-SNAT and M-SNAT-ctrl were evaluated in PC3 and DU145 cells with the MetAP2-specific inhibitor TNP-470. Post click fluorescent labeling was performed as illustrated in FIG. 45A to locate the nanoaggregation in cells and avoid the possible interference with probe uptake by pre-conjugating a large Cy5 fluorophore.

[6] = target: recombinant human MetAP2 (Homo sapiens, UniProt P50579); test: Macrocyclization and nanoaggregation of M-SNAT with recombinant MetAP2; settings: for macrocyclization (HPLC, mass spectrometry): TCEP
Chain of recombinant human MetAP2 (P50579 whole entry): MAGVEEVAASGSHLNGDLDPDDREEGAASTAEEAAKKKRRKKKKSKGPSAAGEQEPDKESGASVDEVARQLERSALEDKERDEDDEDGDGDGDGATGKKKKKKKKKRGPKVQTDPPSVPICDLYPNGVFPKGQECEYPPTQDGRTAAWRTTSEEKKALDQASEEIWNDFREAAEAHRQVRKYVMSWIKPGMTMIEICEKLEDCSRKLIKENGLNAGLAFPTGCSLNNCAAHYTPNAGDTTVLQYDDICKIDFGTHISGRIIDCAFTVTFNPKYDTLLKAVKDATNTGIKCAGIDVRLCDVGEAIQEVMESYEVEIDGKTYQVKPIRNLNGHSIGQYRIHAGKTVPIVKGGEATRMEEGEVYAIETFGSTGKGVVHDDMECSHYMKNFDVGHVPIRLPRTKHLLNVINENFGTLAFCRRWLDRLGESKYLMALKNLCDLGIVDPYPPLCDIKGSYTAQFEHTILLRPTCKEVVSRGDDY

[7] = Condensation kinetics of aromatic nitriles with L-cysteine (HPLC assay); type: physicochemical; settings: for 2nd order rate constant k: aromatic nitrile with L-cysteine, PBS buffer, room temperature, HPLC assay; for second-order reaction rate: cyano-substituted aromatic with L-cysteine, phosphate-buffered saline (pH=7.4), FIG. 50A
Experimental: as §1

[8] = test system: β-galactosidase activity in 9L/LacZ cells
Experimental: FIG. 33 illustrates quantification of fluorescent intensity in the flow cytometry data in FIG. 3G.
Confocal Microscopy Imaging of 9L/LacZ Cell With B-SNAF2/4-BDP: Cells were incubated with B-SNAF2-BDP or B-SNAF4-BDP (2 μM) at 37° C. for 2 hours and then were then washed three times with cold PBS. The cells were fixed with 4% paraformaldehyde and stained with 2 μM Hoechst 33258 (Sigma) for 10 min. The cells were washed three times with PBS mounted with 2 μM Hoechst 33258 (Sigma) at 37° C. for 20 min. Cells were then fixed and imaged using a confocal laser scanning microscope (Zeiss LSM710; Zeiss America) with DAPI and DsRed filters. The images were processed using the ImageJ software package (National Institutes of Health).

[9] = Intramolecular cyclization kinetics (HPLC assay); type: physicochemical; settings: PBS, pH 7.4, room temperature
Experimental: General Methods for Measuring Intramolecular Cyclization Kinetics: The 1st order rate constants of intramolecular cyclization of I-VI to produce cycl-I-VI, respectively were measured by HPLC assays adapted from the previously reported assay^38. To solutions of substrates I-VI in phosphate buffered saline (PBS) (1×, pH=7.4) were added a solution of TCEP (2.0 equiv.) in PBS (freshly prepared and the pH was adjusted to 7.4 by 1 N sodium hydroxide aqueous solution), affording a final concentration of 100 μM for the substrates. The mixture was kept at room temperature (23° C.) and monitored by HPLC at different time points. The concentration of remaining starting material was calculated using the peak integrals of the starting material at 254 nm. Based on first-order reaction law, In([At]/[A0]) was plotted against time and the slope of the linear regression result gives the first-order rate constant.

[10] = test system: MetAP2 activity in 22Rv1 cells; test: Imaging MetAP2 activity in 22Rv1 cells (post click Cy5 labeling); type: cell-based, human
[11] = test system: PC3 tumors; test: 18F-M-SNAT PET/CT imaging of PC3 xenograft mice; type: in vivo
Experimental: FIG. 47A illustrates images after 90 min programed PET/CT scan; n=4. About 150 μCi ^18F-M-SNAT were injected. White and gray indicate CT signal; a thresholding method was utilized to mask the relatively high uptake in liver, spleen, kideney and bladder.
PET/CT imaging of MetAP2 activity in tumor: Before applying fluorine-18 labeled M-SNAT (^18F-M-SNAT) for studies in vivo, the stability of non-radioactive ^19F-M-SNAT was investigated in mouse serum. The ability of ^18F-M-SNAT to indicate MetAP2 activity was assessed in male nude mice bearing subcutaneous PC3 tumors. When the tumors (right shoulder) were grown to 300-500 mm^3, PBS with or without TNP-470 were injected subcutaneously at 50 mg/kg at a remote position (lower left on the back) every other day for 4 days and then injected every day for 5 more days. The last injection was 4 h before imaging (FIG. 47A).
On the day of imaging, fluorine-18 was generated using a cyclotron and conjugated to M-SNAT in a rapid two-step chemical synthesis (FIG. 44). About 150 μCi (8.9 pmol)^18F-M-SNAT were injected to mice intravenously for a programed microPET/CT whole body scan through 90 min. […] About 1.3% was retained at 90 min. In comparison, the inhibitor-treated mice hold about 1% ID/cc through the whole scanning period (FIG. 47C). […] Tumors were resected 20 h after tracer injection for IHC staining ex vivo.

With C#CCC1NC(=O)C2CSC(=N2)c2ccc3cc(ccc3n2)OCCCNC(=O)c2ccc(cc2)CNC1=O (stereo not drawn) [cycl-II] the “diameter of nanoaggregates (DLS)” value [1] was “around 80 nm”.
For N#Cc1ccccn1 [Entry 3, 2-pyridinecarbonitrile], the “2nd order rate constant k” value [2] is given as “No Rxn^a” and the “2nd order rate constant k” value ([2]; listed as 2-pyridinecarbonitrile) is given as “no reaction was observed”.
In the case of CC(C)(S)[C@@H](N)C(=O)O [Entry 7, D-penicillamine], the “2nd order rate constant k” value [3] was 0.029 ± 0.003 M⁻¹ s⁻¹, the “2nd order rate constant k” value ([3]; listed as D-penicillamine) was 0.029 M⁻¹ s⁻¹ and the second-order reaction rate [3] was 0.06 M⁻¹ s⁻¹.
With C#CCC(NC(=O)CNC(=O)C(CSC)NC(=O)C(N)CCSC)C(=O)NCc1ccc(C(=O)NCCCOc2cnc(C#N)nc2)cc1 (stereo not drawn) [M-SNAT-ctrl] (H-MC(Me)G[Pra][4Amb]-{NH(CH2)3O(2-CNpyrimidin5yl)}; configuration not given here) the “Cy5 post-labeled fluorescence in cells” value [4] was “not”, the “Cy5 post-labeled fluorescence in cells” value ([5]; PC3, 20 μM) was “not” and the “macrocyclization (HPLC, mass spectrometry)” value ([6]; 10 μM, MetAP2 7.5 μg/ml, 24 h) was “could not cyclize”.
With N#Cc1ncccn1 [Entry 5, 2-pyrimidinecarbonitrile] the “2nd order rate constant k” value [7] was 0.99 ± 0.17 M⁻¹ s⁻¹, the “2nd order rate constant k” value ([7]; listed as 2-pyrimidinecarbonitrile) was 0.99 M⁻¹ s⁻¹ and the second-order reaction rate [7] was 0.17 M⁻¹ s⁻¹.
For CCSSCC(NC(=O)OCc1ccc(OC2O[C@H](CO)[C@H](O)[C@H](O)C2O)cc1)C(=O)NCC(=O)NC(CCCCNC(=O)CCc1ccc2n1[B-](F)(F)[N+]1=C(C)C=C(C)C1=C2)C(=O)NCc1ccc(C(=O)NCCCOc2cnc(C#N)nc2)cc1 (stereo partly drawn) [B-SNAF4-BDP], the “retention of fluorescent signal, 9L/LacZ over 9L/Luc” value ([8]; 2 μM, 37° C., 2 hours) was 2.5 fold and the “retention of fluorescent signal, 9L/LacZ versus 9L/Luc” value ([8]; fluorescent imaging) was “significantly higher retention”.
For CC(C)(C)OC(=O)NCCCOc1cnc(C#N)nc1 [Entry 6], the “2nd order rate constant k” value [7] was 0.01 ± 0.0017 M⁻¹ s⁻¹ and the “2nd order rate constant k” value ([7]; listed as alkoxy-substituted 2-pyrimidinecarbonitrile) was 0.01 M⁻¹ s⁻¹.
For C[C@](N)(CS)C(=O)O [Entry 8, 2-methyl-L-cysteine], the “2nd order rate constant k” value [3] was 5.35 ± 0.8 M⁻¹ s⁻¹, the “2nd order rate constant k” value ([3]; listed as 2-methyl-L-cysteine) was 5.35 M⁻¹ s⁻¹ and the second-order reaction rate [3] was 5.7 M⁻¹ s⁻¹.
With N#Cc1ccc2cc(OCCCNC(=O)c3ccc(CNC(=O)C(N)CS)cc3)ccc2n1 (stereo not drawn) [Compound I] the “diameter of nanoaggregates (DLS)” value [1] was 80 nm.
With O=C1NCCCOc2ccc3nc(ccc3c2)C2=NC(CS2)C(=O)NCc2ccc1cc2 (stereo not drawn) [cycl-I] the “diameter of nanoaggregates (DLS)” value [1] was “around 80 nm”.
With C#CCC(NC(=O)C(N)CS)C(=O)NCc1ccc(C(=O)NCCCOc2ccc3nc(C#N)ccc3c2)cc1 (stereo not drawn) [Compound II] the “diameter of nanoaggregates (DLS)” value [1] was 80 nm and the “1st order rate constant of intramolecular cyclization” value (“1st order rate constant” for short) [9] was 1.2×10^−3 s^−1 and 1.2±0.04×10^−3 s^−1.
In the case of N#Cc1ncc(Br)cn1 [Entry 4, 5-bromo-2-pyrimidinecarbonitrile], the “2nd order rate constant k” value [7] was 2.21 ± 0.037 M⁻¹ s⁻¹, the “2nd order rate constant k” value ([7]; listed as 5-bromo-2-pyrimidinecarbonitrile) was 2.21 M⁻¹ s⁻¹ and the second-order reaction rate [7] was 0.58 M⁻¹ s⁻¹.
For C#CCC1NC(=O)CCNC(=O)C2CSC(=N2)c2ncc(cn2)OCCCNC(=O)c2ccc(cc2)CNC1=O (stereo not drawn) [cycl-V], the “1st order rate constant” value [9] was 8.0±0.6×10^−4 s^−1.
For Cc1csc(C#N)n1 [4-methyl-2-thiazolecarbonitrile], the second-order reaction rate ([2]; with cysteine, Ye et al. (2011)) is listed as 0.7 M⁻¹ s⁻¹.
In the case of C#CCC1NC(=O)CNC(=O)C2CSC(=N2)c2ncc(cn2)OCCCNC(=O)c2ccc(cc2)CNC1=O (stereo not drawn) [cycl-IV], the “1st order rate constant” value [9] was 2.1±0.07×10^−3 s^−1.
In the case of C#CCC(NC(=O)CNC(=O)C(CSSCC)NC(=O)C(N)CCSC)C(=O)NCc1ccc(C(=O)NCCCOc2cnc(C#N)nc2)cc1 (stereo not drawn) [M-SNAT] (H-MC(SEt)G[Pra][4Amb]-{NH(CH2)3O(2-CNpyrimidin5yl)}; configuration not given here), the accumulation in cells ([4]; DU145) was “dose-dependent manner”, the “Cy5 post-labeled fluorescence in cells” value [4] was “red fluorescence was observed” and the “Cy5 post-labeled fluorescence in cells” value ([10]; MetAP2 knockdown 22Rv1 cells, 24 h) was “much weaker red fluorescence”. The “Cy5 post-labeled fluorescence in cells” value ([5]; MetAP2 knockdown PC3 cells) was “much weaker red fluorescence”, the “Cy5 post-labeled fluorescence in cells” value ([5]; PC3, 20 μM) was “red fluorescence was observed” and the “average diameter of nanoparticles (DLS, TEM)” value ([6]; 10 μM, MetAP2 7.5 μg/ml, 24 h) was 861 nm. The “diameter range of nanoparticles” value ([6]; 10 μM, MetAP2 7.5 μg/ml, 24 h) was 531-1281 nm, the “macrocyclization (HPLC, mass spectrometry)” value ([6]; 10 μM, MetAP2 7.5 μg/ml, 24 h) was “converted into M-SNAT-cyclized” and the “average diameter of nanoparticles (DLS)” value ([6]; FIG. 44B) was 861 nM. The “diameter range of nanoparticles (DLS)” value ([6]; FIG. 44B) was 531 to 1281 nM.
For CO[C@@H]1[C@H](OC(=O)NC(=O)CCl)CC[C@]2(CO2)[C@H]1[C@@]1(C)O[C@@H]1CC=C(C)C [TNP-470, reference compound], the “effect on M-SNAT fluorescence” value ([10]; 22Rv1, TNP-470 2 μM) was “significantly reduced”, the “effect on M-SNAT fluorescence” value ([5]; PC3, TNP-470 2 μM) was “significantly reduced” and the “inhibition of M-SNAT signal (flow cytometry)” value ([5]; PC3 cells treated, permealized and post-labeled) was 22.7%. For the same compound, the “tumor growth versus PBS-treated group” value ([11]; 50 mg/kg s.c., PC3 tumors) was “no significant difference”.
In the case of C#CCC1NC(=O)CNC(=O)C2(C)CSC(=N2)c2ncc(cn2)OCCCNC(=O)c2ccc(cc2)CNC1=O (stereo not drawn) [cycl-VI], the “1st order rate constant” value [9] was 2.7±0.1×10^−3 s^−1.
In the case of CCSSCC(NC(=O)C(N)CCSC)C(=O)NCC(=O)NC(Cc1cn(CCOCCOCCOCC[18F])nn1)C(=O)NCc1ccc(C(=O)NCCCOc2cnc(C#N)nc2)cc1 (stereo not drawn) [^18F-M-SNAT], the tumor retention ([11]; PBS-treated PC3 tumors, at 90 min) was “About 1.3%”, the tumor uptake ([11]; PBS-treated PC3 tumors, within 10 min) was 1.6 % ID/cc and the clearance ([11]; PC3 xenograft mice, 90 min PET/CT) was “fast clearance by kidney to bladder”. The tumor uptake ([11]; TNP-470 (inhibitor)-treated mice, whole scanning period) was “about 1 % ID/cc”.
